In US8470868B2, “Formulation for the prevention of cardiovascular disease” (priority 2000, dated 2013):
Marks after values point to notes of the source that are not given here.

How the values were obtained:
[1] = Prevalence of adverse effects in randomised placebo controlled trials (treated minus control); format: in vivo, human; settings: daily dose: hydrochlorothiazide 12.5 mg, atenolol 25 mg, enalapril 5 mg, aspirin 75 mg; for Prevalence of any adverse effect in randomised trials (treated minus control) / Prevalence of serious adverse effects (those that warranted withdrawal from randomised trial) (treated minus control): atorvastatin 10 mg, folic acid 0.8 mg
Source text: The dose of each medication has been chosen to maximise the ratio of benefit to hazard. It is recognised that some persons taking a combination of six drugs would develop adverse effects that were unacceptable. The adverse effects attributable to each of the component medications would be made clear to persons taking the combined formulation and alternative formulations omitting one or more of the component ingredients, with or without a substitute ingredient, would be available for persons unable to tolerate one component. […]

[2] = randomised trials, high risk and low risk persons; platelet function not measured; cited from earlier work
[3] = Expected reduction in risk of stroke from the risk factor change (cohort studies and randomised trials); format: in vivo, human; settings: daily dose: hydrochlorothiazide 12.5 mg, atenolol 25 mg, enalapril 5 mg, atorvastatin 10 mg, aspirin 75 mg, folic acid 0.8 mg
Source text: This combined estimate is based on the fact that the effects on the four different risk factors are unrelated and so the expected effects of changing each one will be independent of each other. This expectation is supported by two classes of evidence. […] For example the ratio of the risk of a disease event in persons with high blood pressure and the risk in persons with low blood pressure is similar, irrespective of the values of serum cholesterol and other risk factors. Second, some randomised clinical trials have used combinations of two of the drugs (for example beta blockers and aspirin) in patients with ischaemic heart disease and have shown that the effects are independent (that is, the relative risk in patients who took two drugs (compared with the risk in those who took none) was similar to the relative risk in persons taking one of the drugs multiplied by the relative risk in persons taking the other drug). Accordingly, the effect of the different drugs in combination in Table 3 has been calculated by multiplying the effects of each as shown in footnotes h and j.
The corresponding reductions in incidence of ischaemic heart disease and stroke are those to be expected from the blood pressure reductions, from published analyses of cohort studies and randomised controlled trials of blood pressure and ischaemic heart disease and stroke (references 1, 5).

[4] = atorvastatin 10 mg daily; cited from earlier work
[5] = cited from earlier work
[6] = Randomised controlled trials of folic acid: plasma homocysteine reduction; format: in vivo, human; settings: unpublished randomised controlled trial performed by the applicant

SMILES | Prevalence of any adverse effect in randomised trials (treated minus control) [1] | Prevalence of serious adverse effects (those that warranted withdrawal from randomised trial) (treated minus control) [1] | Effect on the incidence of heart attacks and stroke [2] | Expected reduction in risk of stroke [3] | Associated physiological variable (reduction produced by drug): serum cholesterol [4] | Commonest adverse effects [1] | Associated physiological variable (reduction produced by drug): plasma/serum homocysteine ([5]; folic acid 0.8 mg daily) | Maximum reduction in plasma homocysteine ([5]; meta-analysis of published trials, folic acid doses between 1 mg and 5 mg, maximum produced by 1 mg) | Lowest folic acid dose that produces the maximum reduction in homocysteine [6]
CC(=O)Oc1ccccc1C(=O)O [Aspirin] | 1.8%^b | 0.7%^b | reduces the incidence of heart attacks and stroke in both high risk and low risk persons | – | – | – | – | – | –
CC(C)NCC(O)COc1ccc(CC(N)=O)cc1 (centres unmarked) [Atenolol] | 5.6%^a | 0.9%^a | – | – | – | – | – | – | –
CC(C)c1c(C(=O)Nc2ccccc2)c(-c2ccccc2)c(-c2ccc(F)cc2)n1CC[C@@H](O)C[C@@H](O)CC(=O)O [Atorvastatin] | 0.1% | <0.1% | – | 50%^d | (1.8 mmol/l | – | – | – | –
CCOC(=O)[C@H](CCc1ccccc1)N[C@@H](C)C(=O)N1CCC[C@H]1C(=O)O [Enalapril] | 2.1%^a | 0.2%^a | – | – | – | cough | – | – | –
Nc1nc2ncc(CNc3ccc(C(=O)N[C@@H](CCC(=O)O)C(=O)O)cc3)nc2c(=O)[nH]1 [Folic acid] | <0.1% | <0.1% | – | 10%^g | – | – | (3 μmol/l | 3 µmol/L | 0.8 mg
NS(=O)(=O)c1cc2c(cc1Cl)NCNS2(=O)=O [Hydrochlorothiazide] | 1.4%^a | 0.1%^a | – | – | – | – | – | – | –
